Structures are written as SMILES.

From US20230181905A1, “Systems, Devices, and Methods for Enhancing the Neuroprotective Effects of Non-Invasive Gamma Stimulation with Pharmacological Agents” (Massachusetts Institute of Technology, priority 2021, published 2023) come the findings set out here.

The subject of one assay is vGAT. Put plainly: vGAT synaptic puncta immunohistochemistry. Particulars: 5×FAD mice, visual cortex. It is filed as in vivo, mouse. How it is done: Loss of synapses and neurons are closely associated with higher neuroinflammatory response and cognitive decline in AD. Therefore, synaptic markers in the visual cortex of Plx3397 and/or GENUS treated mice were evaluated. […] Thus, whether these treatments had any effect on neuronal density by immunohistochemical analysis of neuronal marker NeuN was examined (Synaptic Systems, #266 004) positive cells (FIG. 4A).
vGAT and vGLUT1 puncta: LSM 710, with a 40× objective, was used to acquire the images. The entire […] thickness of the slices was acquired in Z stacks—80 per image (step of 0.5 μm). The spot-count inbuilt function in Imarisx64 9.3 was used to count cells automatically.
vGAT and vGLUT1 puncta: LSM 710, with a 40× objective, was used to acquire the images. The entire […] thickness of the slices was acquired in Z stacks—80 per image (step of 0.5 μm). The spot-count inbuilt function in Imarisx64 9.3 (cohortl) and 9.7 (cohort 2) was used to count cells automatically.

The subject of assay [1] is excitatory neurons and interneurons of the visual cortex. Put plainly: In vivo electrophysiology: single unit spiking and LFP phase locking. Also noted: species or system mouse. As to the method: Next, principal component analyses was performed using action potential properties, isolated single units, and further separated them into excitatory and interneurons (FIG. 15A).
Single units were manually isolated by drawing cluster boundaries around the 3D projection of the recorded spikes, presented in SpikeSort3D software (Neuralynx).
The relationship between spike firing times and LFP gamma phase was calculated by mean resultant length using the Circular Statistics Toolbox. Briefly, spikes were sorted and LFP traces were filtered using the continuous wavelet transform returning the instantaneous signal phase and amplitudes. Spike times were linearly interpolated to determine phase, with peaks and troughs of gamma defined as 0 and ±pi radians respectively. The resulting phase values were binned to generate firing probabilities, for each 20-degree interval. […] All analyses were performed using MATLAB.
Spikes: Single units were manually isolated by drawing cluster boundaries around the 3D projection of the recorded spikes, presented in SpikeSort3D software (Neuralynx).
Single unit—LFP phase locking: The relationship between spike spiking times and LFP gamma phase was calculated by mean resultant length using the Circular Statistics Toolbox MATLAB File Exchange Function.
Briefly, spikes were sorted and LFP traces were filtered using the continuous wavelet transform returning the instantaneous signal phase and amplitudes. Spike times were linearly interpolated to determine phase, with peaks and troughs of gamma defined as 0 and ±pi radians respectively. The resulting phase values were binned to generate spiking probabilities, for each 20-degree interval. […] All analyses were performed using MATLAB. All in vivo electrophysiological analyses were conducted in MATLAB (Mathworks, #R2019a) utilizing signal processing and image processing toolboxes.

Another assay has as its system perineuronal nets (WFA). Briefly: WFA staining of perineuronal nets. Particulars: 5×FAD mice. It is filed as in vivo, mouse. The text has this:
Perineuronal nets (PNN) of neurons are necessary for neuronal integrity and circuit plasticity. Loss of PNN is shown to occur in AD. […] Therefore, the effect of the treatment on PNN was examined.
Antibodies: IBA1 (Synaptic Systems, Cat #234 004, dilution-1:500; Wako Chemicals, Cat #019-19741, dilution-1:500), GFAP (Thermo Fisher Scientific, Cat #130300, dilution-1:500), MEF2C (Cell Signaling Technology, Cat #5030T), MAC2 (Cedarlane Labs, Cat #CL8942AP, dilution-1:500), vGAT (Synaptic Systems, Cat #131 013, dilution-1:500), vGLUT (Synaptic Systems, Cat #1135 302, dilution-1:500), NeuN (Synaptic Systems, Cat #266 004, dilution-1:1000), MHC2 (EMD Millipore, Cat #MABF33, dilution-1:500), C1q (Abcam, Cat #ab182451, dilution-1:500), synaptophysin (Sigma, Cat #S5768). The following combination of secondary antibodies were used: (1) Alexa Fluor 488, 594 and 647, (2) Alexa Fluor 555 and 647, (3) Alexa Fluor 594 and 647, or (4) Alexa Fluor 488 and 647. All secondary antibodies were obtained from Invitrogen. Biotinylated Wisteria Floribunda Lectin (Vector Laboratories, Cat #B-1355, dilution-1:500) followed by streptavidin conjugated Alexa Fluor 594 (Thermo Fisher Scientific, Cat #S32356, dilution-1:1000) was used to examine WFA.

The mark [2] stands for this setting: Plx3397 treated 5×FAD mice, baseline.
The mark [3] stands for this setting: Plx3397 treated 5×FAD mice, during acute 40 Hz entrainment.

For the compound `FC(F)(F)c1ccc(CNc2ccc(Cc3c[nH]c4ncc(Cl)cc34)cn2)cn1` [Plx3397, Pexidartinib], the vGAT synaptic puncta with vGAT (IHC) is 109.9±2.235 % of no treatment control. In addition, in the assay with vGAT (vs untreated), the “vGAT positive synaptic puncta” value is “significant increase”. In assay [1] (5×FAD mice, Plx3397 diet 50 days vs control), the “overall mean spiking rate of E-neurons and I-neurons” value is “no differences”. Moreover, in assay [1] (5×FAD mice, Plx3397 vs control), the “% of E-neurons and I-neurons phase-locked to 3-12 Hz theta oscillations” value is listed as “reduction”; the “percentage of E-neurons and I-neurons phase-locked to 30-50 Hz gamma oscillations” value was “less phase-locked”; the “strength of phase-locked neurons to gamma oscillations” value is listed as “without significant difference”; the “strength of theta phase-locking of neurons” value is given as “increase”. Further, the “I-neurons showing 40 Hz entrainment” value in assay [1] (Plx3397 treated 5×FAD mice, acute 40 Hz entrainment, of the 47 I-neurons) is 13 neurons. Also, in assay [1] (setting [2]), the “percentage of I-neurons phase-locked to gamma” value turned out to be 34.04% and the “percentage of gamma phase-locked E-neurons” value amounted to 35.64%. Moreover, in assay [1] (setting [3]), the “percentage of I-neurons phase-locked to gamma” value is on record as 65.95% and the “percentage of gamma phase-locked E-neurons” value stood at 46.53%. The “gamma phase-locking strength of E-neurons and I-neurons” value in assay [1] (Plx3397 treated 5×FAD mice, during acute 40 Hz entrainment vs baseline) was “enhanced”. The “WFA content within the microglia compared to control mice” value in the assay on perineuronal nets (WFA) is recorded as “higher”. Moreover, in the assay with perineuronal nets (WFA) (hippocampus, chronic Plx3397 vs control), the WFA signals result was “increased”. For the same compound, in the assay with perineuronal nets (WFA) (visual cortex), the PNN coverage entry is “increased”, the “WFA overall signal intensity” value was “increased” and the WFA signals is on record as 130.4±7.178 % of no treatment control. Further, the “WFA+ PNN signals” value with perineuronal nets (WFA) (visual cortex, Plx3397 50 days) is recorded as 289400000±9384029 au.
